{
  "source": "patent US10668039B2",
  "about": "“Methods for treatment of adenoid cystic carcinoma” (THE CHILDREN'S MEDICAL CENTER CORPORATION, priority 2016, dated 2020)",
  "key": {"c-myb [1]": {"test_system": "c-myb", "assay": "qPCR of sorted c-myb:GFP zebrafish embryo cells", "type": "cell-based", "conditions": "sorted c-myb:GFP cells from 72 hpf embryos, 1 μM, 6 hours", "description": "RA dose response experiments were plated similarly in LDF medium with the appropriate RA concentration. Sorted c-myb:GFP+ cells were collected from 72 hpf transgenic embryos that were homogenized: embryos were finely chopped and dissociated using Liberase (Roche), cell suspensions were filtered, and 58,000 GFP+ live cells were collected using a FACS Aria cell sorter (BD Biosciences). Cells were cultured for 6 hours in LDF medium, and then collected for qPCR.\n(§1) Quantitative PCR: Total RNA from cells was extracted using Qiagen RNeasy Mini Kit, and random primed cDNA was generated (Invitrogen, SuperScript III First-Strand Synthesis System). The SsoFast EvaGreen (Biorad) method was used to quantify cDNAs of interest, which are represented as the fold change in transcript level. The amount of cDNA starting material for each sample was normalized in relation to species-specific β-actin expression for zebrafish samples, and both gapdh and β-actin expression for human samples. The primer sequences used were zebrafish myb: forward, 5′-[…]-3′ (SEQ ID No:1), reverse, 5′-[…]-3′ (SEQ ID No:2); zebrafish β-actin: forward, 5′-[…]-3′ (SEQ ID No:3), reverse, 5′-[…]-3′ (SEQ ID No:4); human myb: forward, 5′-[…]-3′ (SEQ ID No:5), reverse, 5′-[…]-3′ (SEQ ID No:6); human gapdh: forward, 5′-[…]-3′ (SEQ ID No:7), reverse, 5′-[…]-3′ (SEQ ID No:8); human β-actin: forward, 5′-[…]-3′ (SEQ ID No:9), reverse, 5′-[…]-3′ (SEQ ID No:10).\nZebrafish quantitative PCR analysis: Stage-matched 72 hpf c-myb:GFP transgenic embryos were finely chopped and dissociated using Liberase (Roche). GFP+ cells were collected using a FACS Aria cell sorter (BD Biosciences). Sorted cells were resuspended in zebrafish blastomere media and plated with 1 μM retinoic acid agonists for 6 hours. Cells were then collected and RNA was isolated using the RNeasy Micro Plus Kit (Qiagen) as per the manufacturer's instructions. cDNA was synthesized using the SuperScript III Kit (Life Technologies). Quantitative PCR was performed in triplicate on a BioRad iQ5 real-time PCR machine using Ssofast EvaGreen Supermix (BioRad). Samples were normalized to β-actin gene. Zebrafish primers used (forward and reverse respectively): actin, 5′-[…]-3′ (SEQ ID No:3) and 5′-[…] -3′ (SEQ ID No:4); c-myb, 5′-[…]-3′ (SEQ ID No:1) and 5′-[…]-3′ (SEQ ID No:2); mpx, 5′-[…]-3′ (SEQ ID No:11) and 5′-[…]-3′ (SEQ ID No:12); GFP, 5′-[…]-3′ (SEQ ID No:13) and 5′-[…]-3′ (SEQ ID No:14)."}, "c-myb:GFP": {"test_system": "c-myb:GFP", "assay": "c-myb:GFP zebrafish blastomere embryo culture chemical screen", "type": "cell-based", "conditions": "approximately 30 μM, 2 days", "description": "The inventors have developed an embryo culture system in which embryos bearing a c-myb:GFP transgenic reporter were dissociated during sphere stage at 4 hours post fertilization (hpf), and cultured in gelatin-coated 384 well plates with chemicals for 2 days until imaging for fluorescent reporter activity (FIG. 1). This fluorescent transgene is expressed in a similar pattern to the endogenous gene. […] This transgene responds to inducers of hematopoiesis, as myb is a marker of hematopoietic stem cells (HSCs).\nThe image analysis software (ImageJ and MatLab) was used to identify hits that downregulate c-myb:GFP zebrafish embryo cultures by a z-score less than […] and more than 70% downregulation. Hits were assessed by eye and scored for morphology. Toxic compounds that caused poor embryoid body (EB) formation were assessed a 4.\nZebrafish cell culture: Zebrafish embryo cultures were adapted from Xu (2013). Dissociated blastomere cells were grown in medium composed of 85% LDF medium, 5% heat inactivated FBS, and 10% zebrafish day 1 embryo extract. LDF medium contains 50% Leibowitz's L-15 (Invitrogen), 20% DMEM (Invitrogen), and 30% DMEM/F-12 (Invitrogen), supplemented with 0.018% sodium bicarbonate, 15 mM HEPES (Invitrogen), 1% L-Glutamine (Invitrogen), 10 nM sodium selenite (Sigma-Aldrich), 1% N2 (Invitrogen), 2% B27 (Invitrogen), 1% Penicillin-Streptomycin (Invitrogen), and 0.2% Primocin (InvivoGen).\nScreening procedures: Two 384-well plates were coated with 0.1% gelatin for each chemical library plate. Males of the c-myb:GFP transgenic line were set up overnight with casper females and kept separated until morning when they were mixed for mating. Embryos were washed twice with E3 embryo water and treated with pronase to remove chorions. Dechorionated embryos were washed with E3 embryo water and collected into tubes containing media. Embryos were disassociated by shaking ˜10 times and were filtered through a 40 μm nylon mesh filter. Resulting single cells were diluted with medium and aliquoted 30 μl per well into the 384-well plates at approximately 2 embryo equivalents per well. Chemicals were dispensed immediately afterwards with an Agilent Bravo robot. Chemicals from the libraries were diluted 300 times with LDF medium and were aliquoted 10 μl per well for a final concentration of approximately 33 μM. […] Cells were cultured in a 28° C. incubator with 5% CO2. Two days later, cells were imaged by a Yokogawa Cell Voyager 7000 imager. Images were analyzed by ImageJ and MatLab and confirmed by eye. […]\nCulture of dissociated blastomere cells: Stage-matched zebrafish blastomeres were dissociated at 4 hpf and grown in medium composed of 85% LDF medium, 5% FBS, and 10% embryo extract. LDF medium contains 50% Leibowitz's L-15 (Invitrogen), 20% DMEM (Invitrogen), and 30% DMEM/F-12 (Invitrogen), supplemented with 2% B27 (Gibco), 15 mM HEPES (Gibco), 1% L-glutamine (Gibco), 1% N2 (Gibco), 10 nM sodium selenite (Sigma), 100 ug/mL piperacillin (Sigma), 10 ug/mL ciprofloxacin (GenHunter), and 0.018% sodium bicarbonate (Gibco). Embryo extract was made by homogenizing 24 hpf wildtype AB embryos in HBSS (Gibco)."}, "c-myb [2]": {"test_system": "c-myb", "assay": "U937 time course qPCR of c-myb", "type": "cell-based, human", "conditions": "1 μM; 6, 24 and 48 hours", "description": "Cell culture: U937 cells were grown in RPMI 1640 (Life Technologies), 10% heat inactivated FBS, and 1% Penicillin-Streptomycin (Invitrogen). CellTiter-Glo Luminescent Cell Viability Assay (Promega) was performed as per manufacturer's instructions. Cell viability was assessed at day 2.\nas §1\nU937 time course quantitative PCR analysis: U937 cells were plated with 1 μM retinoic acid agonists for the duration indicated. Cells were then collected and RNA was isolated using the RNeasy Plus Mini Kit (Qiagen) as per the manufacturer's instructions. Further processing was done as described in the section above. Samples were normalized to β-actin gene. Human primers used (forward and reverse respectively): actin, 5′-[…]-3′ (SEQ ID No:9) and 5′-[…]-3′ (SEQ ID No:10); c-myb, 5′-[…]-3′ (SEQ ID No:5) and 5′-[…]-3′ (SEQ ID No:6)."}, "ACC": {"test_system": "ACC", "conditions": "Phase II trials in ACC; cited from earlier work"}, "ACC PDX models": {"test_system": "ACC PDX models", "assay": "ATRA comparison TGI studies in ACC PDX models", "type": "in vivo", "conditions": "ATRA 8 mg/kg to 32 mg/kg; tamibarotene 2 mg/kg", "description": "The TGI studies in ACC PDX models were repeated in order to compare the original ATRA dose (3 or 4 mg/ml) against a more physiologically relevant dose of ATRA (8 mg/kg) and an alternative retinoid Tamibarotene (originally developed for ATRA-resistant cancer settings, approved in Japan and currently in development at Syros Pharmaceuticals)."}, "[3]": {"conditions": "Table 3, GFP signal in blastomere embryo culture screen"}},
  "data": [
    {"molecule": "CC1=C(/C=C/C(C)=C\\C=C\\C(C)=C\\C(=O)O)C(C)(C)CCC1", "note": "[9-cis retinoic acid]", "values": [
      {"measurement": "endogenous myb levels by qPCR", "setting": "c-myb [1]", "result": "significantly downregulate"},
      {"measurement": "Fold Change", "setting": "c-myb:GFP; Table 2, c-myb:GFP embryo cultures", "result": "−0.9153"},
      {"measurement": "Z-Score", "setting": "c-myb:GFP; Table 2, c-myb:GFP embryo cultures, average across two plates", "result": "−1.566"},
      {"measurement": "Fold Change", "setting": "c-myb:GFP; [3]", "result": "−0.9153"},
      {"measurement": "Z-Score", "setting": "c-myb:GFP; [3]", "result": "−1.566"},
      {"measurement": "myb levels in U937 by qPCR", "setting": "c-myb [2]", "result": "significantly downregulate"}
    ]},
    {"molecule": "Cc1ccc(NC(=O)c2ccc(CN3CCN(C)CC3)cc2)cc1Nc1nccc(-c2cccnc2)n1", "note": "[Imatinib]", "values": [
      {"measurement": "Objective Response Rate", "setting": "ACC", "result": 0, "unit": "%"}
    ]},
    {"molecule": "CS(=O)(=O)CCNCc1ccc(-c2ccc3ncnc(Nc4ccc(OCc5cccc(F)c5)c(Cl)c4)c3c2)o1", "note": "[Lapatinib]", "values": [
      {"measurement": "Objective Response Rate", "setting": "ACC", "result": 0, "unit": "%"}
    ]},
    {"molecule": "CNC(=O)c1cc(Oc2ccc(NC(=O)Nc3ccc(Cl)c(C(F)(F)F)c3)cc2)ccn1", "note": "[Sorafenib]", "values": [
      {"measurement": "Objective Response Rate", "setting": "ACC", "result": 11, "unit": "%"}
    ]},
    {"molecule": "O=C(CCCCCCC(=O)Nc1ccccc1)NO", "note": "[Vorinostat]", "values": [
      {"measurement": "Objective Response Rate", "setting": "ACC", "result": 3, "unit": "%"}
    ]},
    {"molecule": "CC1(C)CCC(C)(C)c2cc(NC(=O)c3ccc(C(=O)O)cc3)ccc21", "note": "[tamibarotene, 4-[(1,1,4,4-tetramethyltetralin-6-yl)carbamoyl]benzoic acid]", "values": [
      {"measurement": "tumor growth inhibition in the PDX studies", "setting": "ACC PDX models", "result": "showed tumor growth inhibition"}
    ]}
  ]
}
